Data on two molecules can be found in US7615361B2, “Toxicity screening methods” (Ceetox, Inc., priority 2006, dated 2009).

Data set [1] can be described thus: MemTox membrane leakage (AK / α-GST). Type of data set: cell-based, rat. The settings on record: rat, H4IIE, 24 HR exposure, read-out: MemTox TC50. In short, it runs like this: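 H4IIE rat hepatoma cells were exposed to compound diluted in complete culture medium. Leakage of adenylate kinase (luminescence) and/or α-GST (ELISA, 450/650 nm) was measured in the medium collected at the end of exposure. Percent live cells was computed relative to 1 mM digitonin-treated maximum release, as means of n=3-7.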

A short description of data set [2]: MTT reduction. Type of data set: cell-based, rat. To be noted: rat, H4IIE, 24 HR exposure, read-out: MTT TC50. In short, it runs like this:
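Rat hepatoma H4IIE cells exposed to compound prepared in complete culture medium, with tetrazolium dye (MTT) reduction used as a mitochondrial-function read-out of cytotoxicity. Values are means of each exposure group (n=3-7).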

In data set [3] the test system is H4IIE cells. Nature of the data set: Predicted Ctox from Tox-Panel. Type of data set: cell-based, rat. The settings on record: 24 HR, estimated sustained plasma concentration where toxicity would be expected in vivo. In short, it runs like this: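 Ctox is taken as the NOEL from 24 h concentration-response profiles in H4IIE cells, covering at least cell replication, mitochondrial function and membrane integrity. Each indicator is expressed as a percentage of the compound-free control. It estimates the sustained toxic plasma concentration in vivo.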

Data set [4] relates to rat cardiomyocytes. Nature of the data set: Membrane lipid peroxidation (8-isoprostane ELISA). It is filed as cell-based. To be noted: CM, 24 HR. In short, it runs like this: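 Neonatal rat cardiomyocytes exposed to the test compound, then cells or supernatant harvested for biochemical analysis of oxidative stress. Values are means of each exposure group (n=3-7).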
A general note: ELISA stands for enzyme-linked immunosorbent assay.

The test system of data set [5] is H4IIE cells. Nature of the data set: Membrane lipid peroxidation (8-isoprostane ELISA). It is filed as cell-based, rat. The settings on record: H4IIE, 24 HR. In short, it runs like this:
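Rat hepatoma H4IIE cells exposed to test compound prepared in complete culture medium; cells or supernatant harvested for oxidative-stress endpoints. Camptothecin and rotenone served as positive controls; group means from n=3-7.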

The subject of data set [6] is P-glycoprotein (PgP). In words: P-glycoprotein (PgP) binding: MTT with and without cyclosporin A. It is filed as cell-based, rat. To be noted: H4IIE 24 HR; for % Control (Compound + CSA) / % Control (Compound): MTT, 50 μM; for % Control (Compound + CSA): with cyclosporin A; for % Control (Compound): without CSA. The method, then: Several antiviral drugs are substrates for P-glycoprotein transporter (PgP).
P-glycoprotein (PgP) transport proteins are expressed in the bile canalicular membrane of normal liver. However, in neoplastic cells it is not uncommon to have expression of this transporter system in the plasma membrane. […] The existence of these transporters was evaluated with the Calcein-AM assay and with known substrates of PgP.

On to `COc1cccc2c1C(=O)c1c(O)c3c(c(O)c1C2=O)C[C@@](O)(C(=O)CO)C[C@@H]3O[C@H]1C[C@H](N)[C@H](O[C@@H]2CCCCO2)[C@H](C)O1` [PIRARUBICIN, pirarubicin], for which the values for the CC50 at 24 h in data set [1] (H4IIE rat hepatoma cells) and in data set [2] (H4IIE rat hepatoma cells) were 50 µM and 16 µM, respectively. The “Predicted Ctox” value in data set [3] is 5 µM. In addition, the “Membrane Lipid Peroxidation” value in data set [4] and in data set [5] was 0 throughout. For the same molecule, in data set [6], the “% Control (Compound + CSA)” value worked out at 33.6%. Further, the “% Control (Compound)” value in data set [6] is recorded as 51.9%. In addition, the “% Difference” value in data set [6] (1-20% low, 20-50% moderate, 50-100% high PgP interaction) is given as 35.2%.
On to `C=C(C)[C@H]1Cc2c(ccc3c2O[C@@H]2COc4cc(OC)c(OC)cc4[C@@H]2C3=O)O1` [ROTENONE, Rotenone], for which the CC50 at 24 h worked out at 100 µM in data set [1] and 0.07 µM in data set [2]. In data set [3], the “Predicted Ctox” value was 0.03 µM. For the same molecule, the “Membrane Lipid Peroxidation” value in data set [4] is listed as 3 (3 = Concentration related increase with a maximum value ≧30 pg/mL); in data set [5], 2 (2 = Concentration related increase with maximum values ≧15 pg/mL). Moreover, the “% Control (Compound + CSA)” value in data set [6] is 0.0%. Further, in data set [6], the “% Control (Compound)” value amounted to 0.0%.
